# Assay results published in BindingDB's records for doi:10.1021/np9005629 (Seoul National University, 2010).
# Where a name gives a salt, the structure may show the parent alone.
# Molecular target: T1, Sortase family protein (Staphylococcus aureus, UniProt Q9S446)
# T1 sequence (Q9S446 whole entry): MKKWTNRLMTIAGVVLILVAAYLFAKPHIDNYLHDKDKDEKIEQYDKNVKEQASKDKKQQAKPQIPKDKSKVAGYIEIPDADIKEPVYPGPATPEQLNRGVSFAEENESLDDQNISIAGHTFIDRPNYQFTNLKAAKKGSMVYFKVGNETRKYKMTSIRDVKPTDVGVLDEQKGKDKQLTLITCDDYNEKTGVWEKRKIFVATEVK
# Test: Inhibition of Staphylococcus aureus sortase A after 1 hr in the presence of fluorescent peptide […]-QALPETGEE-Edans by fluorimetry
compound,measurement,value
O=C(O)c1cc[c]([Hg][OH])cc1 [para-(Hydroxymercury)benzoic acid sodium salt],IC50,111 µM
